From patent publication US11415579B2, “Assay for measuring a rate of reaction between a target and a ligand candidate” (Imperial College Innovations Ltd., priority 2016, dated 2022)

Experiments:
[1] = Kinetic thiol consumption assay with model thiol glutathione; type: physicochemical; design: Rate constant with glutathione (k(GSH)): unit not given here; settings: for Rate constant with glutathione (k(GSH)): 500 μM ligand, 5 μM thiol, phosphate buffer pH 8; for Rate constant with Glutathione: Protein: Glutathione, cysteine position NA, in h-1
In short: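 GSH 5 μM, degassed phosphate buffer pH 8, TCEP beads 2% v/v; acrylamide added; RT, 1 h; fluorescence ex/em 380/470 nm; normalized to DMSO/thiol control; k from first-order exponential decay fit.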

[2] = target: T1, human cyclin-dependent kinase 2 (Cdk2) (Homo sapiens, UniProt P24941); assay: Kinetic thiol consumption assay with wild type Cdk2 (C177); type: binding; design: key to Rate enhancement, Cdk2 WT: k(Cdk2) divided by k(model thiol); Rate constant with Cdk2 (k(Cdk2)): unit not given here; settings: for Rate constant with Cdk2 (k(Cdk2)): 500 μM ligand, 5 μM thiol, phosphate buffer pH 8; for Rate enhancement, Cdk2 WT: no additional mutations; for Rate constant with Cdk2 WT: Protein: Cdk2, cysteine position WT, in h^-1; for k(Cdk2)/k(Cdk2_mut) rate enhancement: model thiol Cdk2[C177A, F80C, K278C]; for k(Cdk2)/k(GSH) rate enhancement: model thiol glutathione
T1 construct: poly-histidine; made in house; host or cells: E. coli
In short: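 Rate constants came from first-order exponential decay fits of normalized fluorescence against time, with thiol (5 μM) in degassed pH 8 phosphate buffer containing 2% v/v TCEP beads and reads after 1 h at room temperature.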

Cdk2[C177A, F80C, K278C] = target: T2, Cdk2[C177A, F80C, K278C] (Homo sapiens, UniProt P24941, C177A/F80C/K278C); assay: Kinetic thiol consumption assay with mutant Cdk2 as model thiol; type: binding; design: unit not given here; settings: 500 μM ligand, 5 μM thiol, phosphate buffer pH 8
T2 construct: poly-histidine; made in house; host or cells: E. coli
In short: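 First-order rate constants were derived by exponential-decay fitting of DMSO/thiol-normalized fluorescence (380/470 nm) over time at room temperature. Thiol was 5 μM E. coli-expressed His-tagged Cdk2 mutant C177A/F80C/K278C in degassed pH 8 phosphate buffer containing 2% v/v TCEP beads.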

Cdk2(C177A, F80C) = target: T3, Cdk2(C177A, F80C) (Homo sapiens, UniProt P24941, C177A/F80C); assay: Kinetic thiol consumption assay with Cdk2 mutant F80C, incl. kobs versus concentration (Kd, k2); type: binding; design: key to Rate enhancement, Cdk2 F80C: Cdk2 rate constant divided by model-thiol rate constant; settings: additional mutation C177A; for Rate constant with Cdk2 F80C: Protein: Cdk2, cysteine position F80C, in h^-1
T3 construct: poly-histidine; made in house; host or cells: E. coli
In short: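 His-tagged Cdk2(C177A/F80C) from E. coli or model thiol, 5 μM in degassed phosphate buffer pH 8 with TCEP beads, reacted with acrylamide ligands; fluorescence (ex/em 380/470 nm) normalized to DMSO control and fitted to first-order decay for kobs. Kd and k2 obtained from hyperbolic fit of kobs versus ligand concentration.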

Cdk2(H71C) (C177A) = target: T4, Cdk2(H71C) (C177A) (Homo sapiens, UniProt P24941, C177A/H71C); assay: Kinetic thiol consumption assay with Cdk2 mutant H71C; type: binding; design: key to Rate enhancement, Cdk2 H71C: rate constant with Cdk2 ÷ rate constant with model thiol (fold); settings: additional mutation C177A; for Rate constant with Cdk2 H71C: Protein: Cdk2, cysteine position H71C, in h^-1
T4 construct: poly-histidine; made in house; host or cells: E. coli
In short: (§1)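 Read-out is fluorescence at 380/470 nm, taken after 1 h at room temperature and normalized to a DMSO/thiol-only control over time. Thiol (5 μM Cdk2 mutant or model thiol) was in degassed pH 8 phosphate buffer with 2% v/v TCEP beads. Acrylamide rate constants for Cdk2 were divided by those with model thiol.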

Cdk2(S276C) (C177A) = target: T5, Cdk2(S276C) (C177A) (Homo sapiens, UniProt P24941, C177A/S276C); assay: Kinetic thiol consumption assay with Cdk2 mutant S276C; type: binding; design: key to Rate enhancement, Cdk2 S276C: rate constant with Cdk2 ÷ rate constant with model thiol (fold); settings: additional mutation C177A; for Rate constant with Cdk2 S276C: Protein: Cdk2, cysteine position S276C, in h^-1
T5 construct: poly-histidine; made in house; host or cells: E. coli
In short: as §1

Cdk2(N272C) (C177A) = target: T6, Cdk2(N272C) (C177A) (Homo sapiens, UniProt P24941, C177A/N272C); assay: Kinetic thiol consumption assay with Cdk2 mutant N272C; type: binding; design: key to Rate enhancement, Cdk2 N272: rate constant with Cdk2 ÷ rate constant with model thiol (fold); settings: for Rate enhancement, Cdk2 N272: Cdk2 N272, additional mutation C177A; for Rate constant with Cdk2 N272C: Protein: Cdk2, cysteine position N272C, additional mutation C177A, in h^-1
T6 construct: poly-histidine; made in house; host or cells: E. coli
In short: as §1

Cdk2(T182C) (C177A) = target: T7, Cdk2(T182C) (C177A) (Homo sapiens, UniProt P24941, C177A/T182C); assay: Kinetic thiol consumption assay with Cdk2 mutant T182C; type: binding; design: key to Rate enhancement, Cdk2 T182C: rate constant with Cdk2 ÷ rate constant with model thiol (fold); settings: additional mutation C177A; for Rate constant with Cdk2 T182C: Protein: Cdk2, cysteine position T182C, in h^-1
T7 construct: poly-histidine; made in house; host or cells: E. coli
In short: as §1

Cdk2(R122C) (C177A) = target: T8, Cdk2(R122C) (C177A) (Homo sapiens, UniProt P24941, C177A/R122C); assay: Kinetic thiol consumption assay with Cdk2 mutant R122C; type: binding; design: key to Rate enhancement, Cdk2 R122C: rate constant with Cdk2 ÷ rate constant with model thiol (fold); settings: additional mutation C177A; for Rate constant with Cdk2 R122C: Protein: Cdk2, cysteine position R122C, in h-1
T8 construct: poly-histidine; made in house; host or cells: E. coli
In short: as §1

Cdk2(S181C) (C177A) = target: T9, Cdk2(S181C) (C177A) (Homo sapiens, UniProt P24941, C177A/S181C); assay: Kinetic thiol consumption assay with Cdk2 mutant S181C; type: binding; design: key to Rate enhancement, Cdk2 S181C: rate constant with Cdk2 ÷ rate constant with model thiol (fold); settings: additional mutation C177A; for Rate constant with Cdk2 S181C: Protein: Cdk2, cysteine position S181C, in h^-1
T9 construct: poly-histidine; made in house; host or cells: E. coli
In short: as §1

| Structure (SMILES) | Rate constant with Glutathione [1] | Rate constant with Cdk2 (k(Cdk2)) [2] | Rate enhancement, Cdk2 WT [2] | Rate constant with Cdk2 WT [2] | k(Cdk2)/k(Cdk2_mut) rate enhancement [2] | Rate constant with Cdk2[C177A, F80C, K278C] (k(Cdk2_mut)) (Cdk2[C177A, F80C, K278C]) | Rate enhancement, Cdk2 F80C (Cdk2(C177A, F80C)) | Rate constant with Cdk2 F80C (Cdk2(C177A, F80C)) | Rate enhancement, Cdk2 H71C (Cdk2(H71C) (C177A)) | Rate constant with Cdk2 H71C (Cdk2(H71C) (C177A)) | Rate enhancement, Cdk2 S276C (Cdk2(S276C) (C177A)) | Rate constant with Cdk2 S276C (Cdk2(S276C) (C177A)) | Rate enhancement, Cdk2 N272 (Cdk2(N272C) (C177A)) | Rate constant with Cdk2 N272C (Cdk2(N272C) (C177A)) | Rate enhancement, Cdk2 T182C (Cdk2(T182C) (C177A)) | Rate constant with Cdk2 T182C (Cdk2(T182C) (C177A)) | Rate enhancement, Cdk2 R122C (Cdk2(R122C) (C177A)) | Rate constant with Cdk2 R122C (Cdk2(R122C) (C177A)) | Rate enhancement, Cdk2 S181C (Cdk2(S181C) (C177A)) | Rate constant with Cdk2 S181C (Cdk2(S181C) (C177A)) | also measured |
| --- | --- | --- | --- | --- | --- | --- | --- | --- | --- | --- | --- | --- | --- | --- | --- | --- | --- | --- | --- | --- | --- |
| C=CC(=O)NCCNC(=O)c1ccccc1 [CA216] | 0.004286 | 0.00676 | 3.777 | 0.01619 | 0.356 | 0.01899 | 18.66 | 0.07999 | 1.033 | 0.004427 | 1.648 | 0.007064 | 2.921 | 0.01252 | 59.66 | 0.2557 | 0.4256 | 0.001824 | 0.8854 | 0.003795 | Rate constant with glutathione (k(GSH)) [1]: 0.00254; k(Cdk2)/k(GSH) rate enhancement [2]: 2.66 |
| C=CC(=O)NCc1ccccc1 [CA-009] | 0.006985 | 0.00446 | 2.404 | 0.01679 | 1.108 | 0.00402 | 0.5029 | 0.003513 | 0.2836 | 0.001981 | 0.8186 | 0.005718 | 1.318 | 0.009206 | 21.57 | 0.1507 | 0.5794 | 0.004047 | 0.4707 | 0.003288 | – |
| C=CC(=O)Nc1cccc2ncccc12 [CA-012] | 0.05195 | 0.09635 | 1.855 | 0.09635 | 0.2318 | 0.4157 | 3.888 | 0.202 | 0.317 | 0.01647 | 0.9852 | 0.05118 | 0.4189 | 0.02176 | 5.8 | 0.3013 | 0.6897 | 0.03583 | 2.504 | 0.1301 | Rate constant with glutathione (k(GSH)) [1]: 0.05132; k(Cdk2)/k(GSH) rate enhancement [2]: 1.877 |
| C=CC(=O)Nc1ccc(C(=O)OC)cc1 [CA-028] | 0.06113 | 0.1733 | 2.835 | 0.1733 | 0.5523 | 0.3138 | 1.175 | 0.07185 | 1.035 | 0.06327 | 1.04 | 0.06356 | 0.7612 | 0.04653 | 5.246 | 0.3207 | 0.3475 | 0.02124 | 0.5066 | 0.03097 | Rate constant with glutathione (k(GSH)) [1]: 0.05986; k(Cdk2)/k(GSH) rate enhancement [2]: 2.895 |
| C=CC(=O)N1CCN(C(=O)OC(C)(C)C)CC1 [CA-029] | 0.0211 | 0.00892 | 0.4226 | 0.008917 | 1.45 | 0.00615 | 0.1236 | 0.002607 | 0.1266 | 0.002672 | 0.3272 | 0.006904 | 0.2719 | 0.005738 | 1.766 | 0.03726 | 0.2033 | 0.004289 | 0.3298 | 0.006959 | Rate constant with glutathione (k(GSH)) [1]: 0.01716; k(Cdk2)/k(GSH) rate enhancement [2]: 0.5196 |
